Reference: US9902725B2, “Heterocyclic derivatives as RORgamma modulators” (GENFIT, priority 2014, dated 2018)

Each compound was assayed against T1, RORγt ligand-binding domain (RORγt-LBD) (Homo sapiens, UniProt P51449) (assay: Time-resolved FRET (TR-FRET) RORγt coactivator assay). Settings: GST-RORγ-LBD, biotinylated RIP140 peptide, coactivator displacement.
T1 construct: 20 nM recombinantly expressed RORγ-LBD fused to GST
T1 sequence (P51449 269-508 limits assumed): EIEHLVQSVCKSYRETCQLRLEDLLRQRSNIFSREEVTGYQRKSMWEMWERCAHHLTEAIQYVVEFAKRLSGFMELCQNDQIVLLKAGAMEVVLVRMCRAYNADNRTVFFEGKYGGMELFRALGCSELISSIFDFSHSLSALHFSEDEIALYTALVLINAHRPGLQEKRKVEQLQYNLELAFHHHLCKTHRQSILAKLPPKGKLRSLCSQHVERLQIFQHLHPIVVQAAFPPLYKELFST
Type: biochemical
Excerpt: Time-resolved FRET (TR-FRET) RORγt coactivator assay was used to identify RORγ modulator compounds with ligand-dependent coactivator displacement. The assay uses a d2-labeled anti-GST antibody, synthetic N-terminally biotinylated peptide which is derived from nuclear receptor coactivator protein RIP140, and a RORγt ligand-binding domain (RORγt-LBD) that is tagged with glutathione-S-transferase (GST). The influence of compounds on the RORγ-peptide interaction relies on the binding dependent energy transfer from a donor to an acceptor fluorophore attached to the binding partner of interest. […] For reduction of background from compound fluorescence, TR-FRET method makes use of generic fluorophore labels and time resolved detection.
The assays were done in a final volume of 20 μl in a 384 well plate in a CHAPS buffer (2 mM CHAPS; 1 mM DTT, 2 mM EDTA; 0.1% BSA), containing 20 nM recombinantly expressed RORγ-LBD fused to GST, 30 nM N-terminally biotinylated peptide, 1 nM streptavidin-terbium conjugate and 20 nM d2 labeled-anti-GST. Test compounds were diluted using 10 mM stock solution. The range of the final compound concentrations used in this test was from 0.3 nM to 30 μM (logarithmic scale). DMSO content of the samples was kept at 1%. The assay was equilibrated for 2 hours in the dark at room temperature in 384 well plates (Falcon). The signal was detected by an Ultra384 reader (TECAN). The results were visualized by plotting the ratio between the emitted light at 665 nm and 620 nm. A basal level of RORγ-peptide formation is observed in the absence of added compound. Compounds that promote coactivator displacement induce a concentration-dependent decrease in time-resolved fluorescent signal. Data were collected and analyzed using GraphPad Prism software (GraphPad Software V5.02, San Diego Calif. USA). IC50 in μM and Emax in % were reported for each compound.

CC(C)(C)OC(=O)CCc1c[nH]c2ccc(CC(=O)NC(c3ccccc3)c3ccccc3N3CCCCC3)cc12 (centres unmarked) [Cpd. 2, tert-butyl 3-{5-[({phenyl[2-(piperidin-1-yl)phenyl]methyl}carbamoyl)methyl]-1H-indol-3-yl}propanoate] and CC(C)(C)OC(=O)CCc1c[nH]c2ccc(CC(=O)NC(c3ccccc3)c3cc(Cl)ccc3N3CCCCC3)cc12 (centres unmarked) [Cpd. 61, tert-butyl 3-{5-[({[5-chloro-2-(piperidin-1-yl)phenyl](phenyl)methyl}carbamoyl)methyl]-1H-indol-3-yl}propanoate] fall in the same range of IC50: 1000 to 10000 nM for the first, 1000 to 10000 nM for the second.

Cc1ccc(C(NC(=O)Cc2ccc3[nH]cc(CCC(=O)O)c3c2)c2ccccc2)c(C)c1 (centres unmarked) [Cpd. 11, 3-[5-({[(2,4-dimethylphenyl)(phenyl)methyl]carbamoyl}methyl)-1H-indol-3-yl]propanoic acid] and Cc1ccc(C)c(C(NC(=O)Cc2ccc3[nH]cc(CCC(=O)O)c3c2)c2ccccc2)c1 (centres unmarked) [Cpd. 13, 3-[5-({[(2,5-dimethylphenyl)(phenyl)methyl]carbamoyl}methyl)-1H-indol-3-yl]propanoic acid] cannot be ordered by IC50: under 1000 nM for the first, under 1000 nM for the second.

Compared with Cc1cc(Cl)ccc1C(NC(=O)Cc1ccc2[nH]cc(CCC(=O)OC(C)(C)C)c2c1)c1ccccc1 (centres unmarked) [Cpd. 34, tert-butyl 3-[5-({[(4-chloro-2-methylphenyl)(phenyl)methyl]carbamoyl}methyl)-1H-indol-3-yl]propanoate], Cc1cc(F)ccc1C(NC(=O)Cc1ccc2[nH]cc(CCC(=O)OC(C)(C)C)c2c1)c1ccccc1 (centres unmarked) [Cpd. 45, tert-butyl 3-[5-({[(4-fluoro-2-methylphenyl)(phenyl)methyl]carbamoyl}methyl)-1H-indol-3-yl]propanoate] is higher in IC50: 1000 to 10000 nM for the first, 10000 to 30000 nM for the second.

COC(=O)Cc1c[nH]c2ccc(CC(=O)NC(c3ccccc3)c3ccccc3N3CCCCC3)cc12 (centres unmarked) [Cpd. 40, methyl 2-{5-[({phenyl[2-(piperidin-1-yl)phenyl]methyl}carbamoyl)methyl]-1H-indol-3-yl}acetate] and COC(=O)Cc1c[nH]c2ccc(CC(=O)NC(c3ccccc3)c3ccccc3N3CCCCCC3)cc12 (centres unmarked) [Cpd. 74, methyl 2-{5-[({[2-(azepan-1-yl)phenyl](phenyl)methyl}carbamoyl)methyl]-1H-indol-3-yl}acetate] cannot be ordered by IC50: under 1000 nM for the first, under 1000 nM for the second.

Cc1ccc(Cl)c(C(NC(=O)Cc2ccc3[nH]cc(CCC(=O)OC(C)(C)C)c3c2)c2ccccc2)c1 (centres unmarked) [Cpd. 41, tert-butyl 3-[5-({[(2-chloro-5-methylphenyl)(phenyl)methyl]carbamoyl}methyl)-1H-indol-3-yl]propanoate] and Cc1ccc(N2CCCCC2)c(C(NC(=O)Cc2ccc3[nH]cc(CCC(=O)OC(C)(C)C)c3c2)c2ccccc2)c1 (centres unmarked) [Cpd. 113, tert-butyl 3-{5-[({[5-methyl-2-(piperidin-1-yl)phenyl](phenyl)methyl}carbamoyl)methyl]-1H-indol-3-yl}propanoate] fall in the same range of IC50: 1000 to 10000 nM for the first, 1000 to 10000 nM for the second.

CC(C)(C)OC(=O)CCc1c[nH]c2ccc(CC(=O)NC(c3ccccc3)c3ccccc3N)cc12 (centres unmarked) [Cpd. 51, tert-butyl 3-[5-({[(2-aminophenyl)(phenyl)methyl]carbamoyl}methyl)-1H-indol-3-yl]propanoate] and CN(C)c1ccccc1C(NC(=O)Cc1ccc2[nH]cc(CCC(=O)OC(C)(C)C)c2c1)c1ccccc1 (centres unmarked) [Cpd. 53, tert-butyl 3-{5-[({[2-(dimethylamino)phenyl](phenyl)methyl}carbamoyl)methyl]-1H-indol-3-yl}propanoate] fall in the same range of IC50: 1000 to 10000 nM for the first, 1000 to 10000 nM for the second.

Compared with CC(C)CC(NC(=O)Cc1ccc2[nH]cc(CCC(=O)OC(C)(C)C)c2c1)c1ccccc1N1CCOCC1 (centres unmarked) [Cpd. 57, tert-butyl 3-{5-[({3-methyl-1-[2-(morpholin-4-yl)phenyl]butyl}carbamoyl)methyl]-1H-indol-3-yl}propanoate], Cc1ccc(C(NC(=O)Cc2ccc3[nH]cc(CCC(=O)OC(C)(C)C)c3c2)c2ccccc2)c(N2CCOCC2)c1 (centres unmarked) [Cpd. 80, tert-butyl 3-{5-[({[4-methyl-2-(morpholin-4-yl)phenyl](phenyl)methyl}carbamoyl)methyl]-1H-indol-3-yl}propanoate] is lower in IC50: 1000 to 10000 nM for the first, under 1000 nM for the second. The second is the more potent here.

First: N#Cc1ccc(C(NC(=O)Cc2ccc3[nH]cc(CCC(=O)O)c3c2)c2ccccc2)c(N2CCCC2)c1 (centres unmarked) [Cpd. 60, 3-{5-[({[4-cyano-2-(pyrrolidin-1-yl)phenyl](phenyl)methyl}carbamoyl)methyl]-1H-indol-3-yl}propanoic acid]
Second: CC(C)(C)OC(=O)CCc1c[nH]c2ccc(CC(=O)NC(c3ccccc3)c3ccc(F)cc3N3CCCC3)cc12 (centres unmarked) [Cpd. 92, tert-butyl 3-{5-[({[4-fluoro-2-(pyrrolidin-1-yl)phenyl](phenyl)methyl}carbamoyl)methyl]-1H-indol-3-yl}propanoate]
The IC50 of the first is lower: under 1000 nM for the first, 1000 to 10000 nM for the second.

COC(=O)Cc1c[nH]c2ccc(CC(=O)NC(c3ccccc3)c3ccc(Br)cc3N3CCCC3)cc12 (centres unmarked) [Cpd. 66, methyl 2-{5-[({[4-bromo-2-(pyrrolidin-1-yl)phenyl](phenyl)methyl}carbamoyl)methyl]-1H-indol-3-yl}acetate] and COC(=O)Cc1c[nH]c2ccc(CC(=O)NC(c3ccccc3)c3ccccc3N3CCCC3)cc12 (centres unmarked) [Cpd. 72, methyl 2-{5-[({phenyl[2-(pyrrolidin-1-yl)phenyl]methyl}carbamoyl)methyl]-1H-indol-3-yl}acetate] cannot be ordered by IC50: under 1000 nM for the first, under 1000 nM for the second.

COC(=O)Cc1c[nH]c2ccc(NC(=O)NC(c3ccccc3)c3ccccc3N3CCCCC3)cc12 (centres unmarked) [Cpd. 68, methyl 2-{5-[({phenyl[2-(piperidin-1-yl)phenyl]methyl}carbamoyl)amino]-1H-indol-3-yl}acetate] and CC(C)(C)OC(=O)CCc1c[nH]c2ncc(NC(=O)NC(c3ccccc3)c3ccccc3N3CCCCC3)cc12 (centres unmarked) [Cpd. 94, tert-butyl 3-{5-[({phenyl[2-(piperidin-1-yl)phenyl]methyl}carbamoyl)amino]-1H-pyrrolo[2,3-b]pyridin-3-yl}propanoate] fall in the same range of IC50: 1000 to 10000 nM for the first, 1000 to 10000 nM for the second.

COC(=O)Cc1c[nH]c2ccc(CC(=O)NC(c3ccccc3)c3ccccc3N(C)C)cc12 (centres unmarked) [Cpd. 70, methyl 2-{5-[({[2-(dimethylamino)phenyl](phenyl)methyl}carbamoyl)methyl]-1H-indol-3-yl}acetate] and CN(C)Cc1ccccc1C(NC(=O)Cc1ccc2[nH]cc(CCC(=O)O)c2c1)c1ccccc1 (centres unmarked) [Cpd. 122, 3-(5-{[({2-[(dimethylamino)methyl]phenyl}(phenyl)methyl)carbamoyl]methyl}-1H-indol-3-yl)propanoic acid] cannot be ordered by IC50: under 1000 nM for the first, under 1000 nM for the second.

Cc1ccc(C(NC(=O)Cc2ccc3[nH]cc(CC(=O)O)c3c2)c2ccccc2)c(N2CCOCC2)c1 (centres unmarked) [Cpd. 97, 2-{5-[({[4-methyl-2-(morpholin-4-yl)phenyl](phenyl)methyl}carbamoyl)methyl]-1H-indol-3-yl}acetic acid] and Cc1ccc(C(NC(=O)Cc2ccc3[nH]cc(CCC(=O)OC(C)(C)C)c3c2)c2ccccc2)c(N2CCN(C)CC2)c1 (centres unmarked) [Cpd. 102, tert-butyl 3-{5-[({[4-methyl-2-(4-methylpiperazin-1-yl)phenyl](phenyl)methyl}carbamoyl)methyl]-1H-indol-3-yl}propanoate] fall in the same range of IC50: 1000 to 10000 nM for the first, 1000 to 10000 nM for the second.

Cc1ccc(C(NC(=O)Cc2ccc3[nH]cc(CCC(=O)OC(C)(C)C)c3c2)c2ccc(C)s2)c(C)c1 (centres unmarked) [Cpd. 100, tert-butyl 3-[5-({[(2,4-dimethylphenyl)(5-methylthiophen-2-yl)methyl]carbamoyl}methyl)-1H-indol-3-yl]propanoate] and CC(C)CC(NC(=O)Cc1ccc2[nH]cc(CCC(=O)OC(C)(C)C)c2c1)c1cccc2ccccc12 (centres unmarked) [Cpd. 104, tert-butyl 3-[5-({[3-methyl-1-(naphthalen-1-yl)butyl]carbamoyl}methyl)-1H-indol-3-yl]propanoate] fall in the same range of IC50: 1000 to 10000 nM for the first, 1000 to 10000 nM for the second.

CC(C)(C)OC(=O)CCc1c[nH]c2ccc(CC(=O)NC(c3ccccc3)c3ccccc3-n3cccc3)cc12 (centres unmarked) [Cpd. 106, tert-butyl 3-{5-[({phenyl[2-(1H-pyrrol-1-yl)phenyl]methyl}carbamoyl)methyl]-1H-indol-3-yl}propanoate] and CC(C)(C)OC(=O)CCc1c[nH]c2ccc(CC(=O)NC(c3ccccc3)c3ccccc3N3CCCC(O)C3)cc12 (centres unmarked) [Cpd. 123, tert-butyl 3-{5-[({[2-(3-hydroxypiperidin-1-yl)phenyl](phenyl)methyl}carbamoyl)methyl]-1H-indol-3-yl}propanoate] fall in the same range of IC50: 1000 to 10000 nM for the first, 1000 to 10000 nM for the second.

Compound CC(C)(C)OC(=O)CCc1c[nH]c2ccc(CC(=O)NC(c3ccccc3)c3cc(Br)ccc3N3CCCC3)cc12 (centres unmarked) [Cpd. 116, tert-butyl 3-{5-[({[5-bromo-2-(pyrrolidin-1-yl)phenyl](phenyl)methyl}carbamoyl)methyl]-1H-indol-3-yl}propanoate] has an IC50 of 1000 to 10000 nM.
